{"source": "ChEMBL document CHEMBL4828715", "about": "“Discovery, Structure-Activity Relationships, and In Vivo Evaluation of Novel Aryl Amides as Brain Penetrant Adaptor Protein 2-Associated Kinase 1 (AAK1) Inhibitors for the Treatment of Neuropathic Pain” (J Med Chem, 2021)", "key": {"[1]": {"molecular_target": "AP2-associated protein kinase 1 (Mus musculus) (UniProt Q3UHJ0)", "sequence (Q3UHJ0 whole entry, looked up)": "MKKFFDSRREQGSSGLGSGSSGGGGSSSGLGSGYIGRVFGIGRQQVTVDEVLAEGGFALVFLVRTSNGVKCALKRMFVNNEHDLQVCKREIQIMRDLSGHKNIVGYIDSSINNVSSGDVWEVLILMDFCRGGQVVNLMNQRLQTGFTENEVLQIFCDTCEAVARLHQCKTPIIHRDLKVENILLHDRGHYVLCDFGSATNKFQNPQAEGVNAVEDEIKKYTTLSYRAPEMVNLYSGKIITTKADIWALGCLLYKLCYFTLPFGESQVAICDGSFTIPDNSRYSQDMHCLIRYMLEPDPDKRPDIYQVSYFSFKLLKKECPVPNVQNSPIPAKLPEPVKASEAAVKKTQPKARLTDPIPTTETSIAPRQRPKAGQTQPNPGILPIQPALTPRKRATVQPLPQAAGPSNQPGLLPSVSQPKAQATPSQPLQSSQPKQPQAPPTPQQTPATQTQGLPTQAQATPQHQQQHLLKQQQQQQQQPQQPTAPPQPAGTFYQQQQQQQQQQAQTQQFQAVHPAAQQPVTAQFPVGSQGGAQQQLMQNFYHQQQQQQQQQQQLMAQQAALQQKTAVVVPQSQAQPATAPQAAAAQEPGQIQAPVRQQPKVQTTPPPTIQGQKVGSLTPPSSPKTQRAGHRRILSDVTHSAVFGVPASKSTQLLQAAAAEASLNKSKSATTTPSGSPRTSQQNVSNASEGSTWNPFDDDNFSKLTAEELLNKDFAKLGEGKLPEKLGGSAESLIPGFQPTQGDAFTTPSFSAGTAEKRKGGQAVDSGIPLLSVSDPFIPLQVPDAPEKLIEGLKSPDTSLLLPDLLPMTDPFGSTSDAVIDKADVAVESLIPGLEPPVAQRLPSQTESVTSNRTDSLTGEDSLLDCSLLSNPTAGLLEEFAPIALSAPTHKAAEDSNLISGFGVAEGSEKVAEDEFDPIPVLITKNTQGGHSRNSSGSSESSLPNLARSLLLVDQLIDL", "test": "In vivo inhibition of AAK1 in sc dosed C57BL6 mouse assessed as suppression of mu2 phosphorylation in brain lysate by Western blot analysis", "assay_type": "functional, organism-based"}, "[2]": {"test": "Metabolic stability in mouse liver microsomes assessed as parent compound remaining at 0.5 uM incubated for 10 mins in presence of NADPH by LC-MS/MS analysis", "assay_type": "ADME, Microsome", "conditions": "read-out: Stability"}, "[3]": {"test": "Ratio of drug concentration in brain to plasma in C57BL6 mouse at 30 mg/kg, sc", "assay_type": "ADME, organism-based", "conditions": "read-out: BPR"}, "[4]": {"test": "Unbound brain-to-plasma concentration ratio in C57BL6 mouse at 30 mg/kg, sc", "assay_type": "ADME, organism-based", "conditions": "read-out: K(p,uu,brain)"}, "[5]": {"test": "Aqueous solubility of the compound at pH 7.4", "assay_type": "physicochemical"}, "[6]": {"molecular_target": "MAP kinase-interacting serine/threonine-protein kinase 2 (Homo sapiens, UniProt Q9HBH9)", "test": "Inhibition of wild-type human partial length MKNK2 (G63 to S388 residues) expressed in mammalian expression system assessed as residual binding level at 1 uM by Kinomescan method relative to control"}, "[7]": {"molecular_target": "Phosphatidylinositol 5-phosphate 4-kinase type-2 beta (Homo sapiens) (UniProt P78356)", "sequence (P78356 whole entry, the tested form may be a part)": "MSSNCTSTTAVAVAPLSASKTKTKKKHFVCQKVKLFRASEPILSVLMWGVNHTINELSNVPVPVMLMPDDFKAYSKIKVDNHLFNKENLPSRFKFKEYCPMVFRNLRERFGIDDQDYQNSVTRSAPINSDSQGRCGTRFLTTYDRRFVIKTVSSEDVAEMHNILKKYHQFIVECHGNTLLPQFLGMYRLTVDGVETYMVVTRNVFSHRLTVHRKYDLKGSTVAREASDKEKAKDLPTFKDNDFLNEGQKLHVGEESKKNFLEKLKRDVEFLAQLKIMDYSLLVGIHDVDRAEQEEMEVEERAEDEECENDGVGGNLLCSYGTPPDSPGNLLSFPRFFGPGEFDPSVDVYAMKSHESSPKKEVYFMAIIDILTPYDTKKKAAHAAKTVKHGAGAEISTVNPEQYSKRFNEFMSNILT", "test": "Inhibition of wild-type human full length PIP5K2B (M1 to T416 residues) expressed in bacterial expression system assessed as residual binding level at 1 uM by Kinomescan method relative to control"}, "[8]": {"molecular_target": "Serine/threonine-protein kinase RIO1 (Homo sapiens) (UniProt Q9BRS2)", "sequence (Q9BRS2 whole entry, the tested form may be a part)": "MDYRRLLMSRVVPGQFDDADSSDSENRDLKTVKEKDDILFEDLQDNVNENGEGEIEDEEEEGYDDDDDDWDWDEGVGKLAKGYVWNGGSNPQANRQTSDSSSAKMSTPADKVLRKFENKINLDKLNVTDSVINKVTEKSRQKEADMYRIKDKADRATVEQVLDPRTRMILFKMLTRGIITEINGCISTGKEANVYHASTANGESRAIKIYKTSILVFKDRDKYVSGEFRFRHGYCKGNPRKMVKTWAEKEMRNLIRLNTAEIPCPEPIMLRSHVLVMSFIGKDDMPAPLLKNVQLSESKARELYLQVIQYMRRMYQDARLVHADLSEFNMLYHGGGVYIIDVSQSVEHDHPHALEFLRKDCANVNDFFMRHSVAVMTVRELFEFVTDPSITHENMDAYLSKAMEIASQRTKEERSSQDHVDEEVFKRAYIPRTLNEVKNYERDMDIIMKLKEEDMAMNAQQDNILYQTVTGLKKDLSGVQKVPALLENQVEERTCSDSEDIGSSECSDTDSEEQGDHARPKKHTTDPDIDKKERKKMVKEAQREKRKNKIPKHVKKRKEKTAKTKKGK", "test": "Inhibition of wild-type human full length RIOK1 (M1 to K568 residues) expressed in bacterial expression system assessed as residual binding level at 1 uM by Kinomescan method relative to control"}, "[9]": {"molecular_target": "SRSF protein kinase 1 (Homo sapiens) (UniProt Q96SB4)", "sequence (Q96SB4 whole entry, the tested form may be a part)": "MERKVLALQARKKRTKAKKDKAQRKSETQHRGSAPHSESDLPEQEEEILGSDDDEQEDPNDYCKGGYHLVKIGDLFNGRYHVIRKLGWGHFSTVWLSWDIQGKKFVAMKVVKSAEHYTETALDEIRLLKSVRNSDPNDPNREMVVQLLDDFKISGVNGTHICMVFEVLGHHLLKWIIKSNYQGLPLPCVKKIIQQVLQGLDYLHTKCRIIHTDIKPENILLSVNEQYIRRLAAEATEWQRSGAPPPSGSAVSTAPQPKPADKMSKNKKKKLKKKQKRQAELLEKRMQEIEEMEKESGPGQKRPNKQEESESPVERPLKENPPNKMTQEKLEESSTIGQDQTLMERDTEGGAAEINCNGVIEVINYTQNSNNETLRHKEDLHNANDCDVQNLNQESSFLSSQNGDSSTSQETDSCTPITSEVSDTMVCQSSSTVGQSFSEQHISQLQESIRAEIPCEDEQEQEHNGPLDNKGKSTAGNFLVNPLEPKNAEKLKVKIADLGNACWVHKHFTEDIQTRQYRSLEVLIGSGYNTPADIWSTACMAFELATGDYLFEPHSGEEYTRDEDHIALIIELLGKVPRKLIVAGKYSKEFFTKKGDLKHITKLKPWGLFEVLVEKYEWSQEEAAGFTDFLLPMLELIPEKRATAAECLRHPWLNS", "test": "Inhibition of wild-type human full length SRPK1 (M1 to S655 residues) expressed in bacterial expression system assessed as residual binding level at 1 uM by Kinomescan method relative to control"}, "[10]": {"molecular_target": "BMP-2-inducible protein kinase (Homo sapiens, UniProt Q9NSY1)", "sequence (Q9NSY1 whole entry, the tested form may be a part)": "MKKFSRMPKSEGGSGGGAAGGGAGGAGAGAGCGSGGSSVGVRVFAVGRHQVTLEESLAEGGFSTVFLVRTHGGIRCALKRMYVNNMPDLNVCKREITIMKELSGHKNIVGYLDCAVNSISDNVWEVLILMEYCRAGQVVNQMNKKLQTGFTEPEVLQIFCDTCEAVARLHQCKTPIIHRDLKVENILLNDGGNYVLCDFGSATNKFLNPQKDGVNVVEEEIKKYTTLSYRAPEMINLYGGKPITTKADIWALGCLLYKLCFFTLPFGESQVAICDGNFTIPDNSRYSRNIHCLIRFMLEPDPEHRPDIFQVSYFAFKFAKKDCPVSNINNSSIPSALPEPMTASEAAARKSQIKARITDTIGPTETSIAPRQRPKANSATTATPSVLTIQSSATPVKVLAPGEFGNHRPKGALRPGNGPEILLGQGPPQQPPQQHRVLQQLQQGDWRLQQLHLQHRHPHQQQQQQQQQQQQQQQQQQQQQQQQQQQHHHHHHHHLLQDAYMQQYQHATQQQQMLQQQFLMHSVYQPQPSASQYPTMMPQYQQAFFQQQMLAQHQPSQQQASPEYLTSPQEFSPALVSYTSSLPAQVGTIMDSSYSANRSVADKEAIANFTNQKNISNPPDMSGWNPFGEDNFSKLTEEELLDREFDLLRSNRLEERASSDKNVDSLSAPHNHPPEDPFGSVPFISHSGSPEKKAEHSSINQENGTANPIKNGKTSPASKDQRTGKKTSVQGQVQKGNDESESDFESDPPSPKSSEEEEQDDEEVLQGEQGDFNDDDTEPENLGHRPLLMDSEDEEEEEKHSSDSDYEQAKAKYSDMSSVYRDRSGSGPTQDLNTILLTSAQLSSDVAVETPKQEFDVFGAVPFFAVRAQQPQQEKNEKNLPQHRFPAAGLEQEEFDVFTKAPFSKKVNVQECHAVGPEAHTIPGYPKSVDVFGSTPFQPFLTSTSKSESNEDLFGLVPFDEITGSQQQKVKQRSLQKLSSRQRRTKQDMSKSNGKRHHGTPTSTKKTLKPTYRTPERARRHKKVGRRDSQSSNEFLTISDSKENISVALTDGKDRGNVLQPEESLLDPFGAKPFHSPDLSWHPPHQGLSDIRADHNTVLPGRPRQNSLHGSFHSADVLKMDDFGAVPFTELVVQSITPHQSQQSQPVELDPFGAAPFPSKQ", "test": "Inhibition of wild-type human partial length BIKE (S34 to N329 residues) expressed in bacterial expression system by Kinomescan method"}, "[11]": {"molecular_target": "Dual specificity protein kinase CLK4 (Homo sapiens, UniProt Q9HAZ1)", "test": "Inhibition of wild-type human partial length CLK4 (R135 to K481 residues) expressed in bacterial expression system by Kinomescan method"}, "[12]": {"molecular_target": "Serine/threonine-protein kinase haspin (Homo sapiens, UniProt Q8TF76)", "sequence (Q8TF76 whole entry, the tested form may be a part)": "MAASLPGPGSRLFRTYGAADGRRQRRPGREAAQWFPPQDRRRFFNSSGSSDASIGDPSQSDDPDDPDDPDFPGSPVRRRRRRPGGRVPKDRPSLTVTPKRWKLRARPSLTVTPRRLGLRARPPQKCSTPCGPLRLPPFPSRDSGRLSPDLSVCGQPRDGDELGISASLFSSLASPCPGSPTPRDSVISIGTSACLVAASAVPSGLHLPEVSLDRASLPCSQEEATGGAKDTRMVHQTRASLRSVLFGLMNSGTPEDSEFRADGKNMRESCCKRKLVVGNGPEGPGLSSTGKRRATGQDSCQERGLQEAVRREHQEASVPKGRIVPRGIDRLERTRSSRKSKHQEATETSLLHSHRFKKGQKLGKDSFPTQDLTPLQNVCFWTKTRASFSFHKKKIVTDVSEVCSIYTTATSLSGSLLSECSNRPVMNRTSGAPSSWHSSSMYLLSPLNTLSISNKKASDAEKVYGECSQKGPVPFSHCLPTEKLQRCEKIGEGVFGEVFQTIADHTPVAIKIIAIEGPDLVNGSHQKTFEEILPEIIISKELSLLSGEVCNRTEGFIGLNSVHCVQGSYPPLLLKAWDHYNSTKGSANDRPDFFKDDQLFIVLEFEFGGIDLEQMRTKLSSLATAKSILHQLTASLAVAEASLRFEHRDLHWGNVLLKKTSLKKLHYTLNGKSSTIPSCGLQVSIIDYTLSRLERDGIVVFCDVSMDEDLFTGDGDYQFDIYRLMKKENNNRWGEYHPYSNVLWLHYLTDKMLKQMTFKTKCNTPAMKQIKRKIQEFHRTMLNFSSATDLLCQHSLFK", "test": "Inhibition of wild-type human partial length HASPIN (I452 to K798 residues) expressed in mammalian expression system by Kinomescan method relative to control"}, "[13]": {"molecular_target": "Protein kinase C theta type (Homo sapiens, UniProt Q04759)", "test": "Inhibition of PKCtheta (unknown origin)"}, "Mu-type opioid receptor": {"molecular_target": "Mu-type opioid receptor (Homo sapiens, UniProt P35372)", "sequence (P35372 whole entry)": "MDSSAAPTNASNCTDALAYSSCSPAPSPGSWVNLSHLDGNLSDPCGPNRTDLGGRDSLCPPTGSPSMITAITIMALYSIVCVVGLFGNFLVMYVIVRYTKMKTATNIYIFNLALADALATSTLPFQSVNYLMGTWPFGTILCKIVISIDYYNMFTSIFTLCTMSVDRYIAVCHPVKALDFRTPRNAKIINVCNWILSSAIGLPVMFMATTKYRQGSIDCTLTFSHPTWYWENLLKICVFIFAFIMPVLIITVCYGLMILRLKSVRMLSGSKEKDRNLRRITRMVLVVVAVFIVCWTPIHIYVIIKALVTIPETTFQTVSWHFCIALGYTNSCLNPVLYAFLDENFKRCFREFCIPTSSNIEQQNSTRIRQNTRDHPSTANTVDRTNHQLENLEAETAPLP", "test": "Inhibition of mu opioid receptor (unknown origin)"}, "[14]": {"molecular_target": "AP2-associated protein kinase 1 (Mus musculus) (UniProt Q3UHJ0)", "test": "In vivo inhibition of AAK1 in C57BL6 mouse assessed as suppression of mu2 phosphorylation in brain lysate at 3 mg/kg, sc measured after 30 mins by Western blot analysis relative to control", "assay_type": "functional, organism-based"}, "[15]": {"molecular_target": "AP2-associated protein kinase 1 (Mus musculus) (UniProt Q3UHJ0)", "test": "In vivo inhibition of AAK1 in C57BL6 mouse assessed as suppression of mu2 phosphorylation in brain lysate at 10 mg/kg, sc measured after 30 mins by Western blot analysis relative to control", "assay_type": "functional, organism-based"}, "[16]": {"molecular_target": "AP2-associated protein kinase 1 (Mus musculus) (UniProt Q3UHJ0)", "test": "In vivo inhibition of AAK1 in C57BL6 mouse assessed as suppression of mu2 phosphorylation in brain lysate at 30 mg/kg, sc measured", "assay_type": "functional, organism-based"}, "[17]": {"molecular_target": "AP2-associated protein kinase 1 (Mus musculus) (UniProt Q3UHJ0)", "test": "In vivo inhibition of AAK1 in C57BL6 mouse assessed as suppression of mu2 phosphorylation in brain lysate at 30 mg/kg, sc measured after 2 hrs by Western blot analysis", "assay_type": "functional, organism-based"}, "[18]": {"test": "Drug concentration in plasma of C57BL6 mouse at 0.3 mg/kg, sc", "assay_type": "ADME, organism-based", "conditions": "in vivo"}, "[19]": {"test": "Drug concentration in plasma of C57BL6 mouse at 1 mg/kg, sc", "assay_type": "ADME, organism-based", "conditions": "in vivo"}, "[20]": {"test": "Drug concentration in plasma of C57BL6 mouse at 3 mg/kg, sc", "assay_type": "ADME, organism-based", "conditions": "in vivo"}, "[21]": {"test": "Drug concentration in plasma of C57BL6 mouse at 10 mg/kg, sc", "assay_type": "ADME, organism-based", "conditions": "in vivo"}, "[22]": {"molecular_target": "AP2-associated protein kinase 1 (Mus musculus, UniProt Q3UHJ0)", "sequence (Q3UHJ0 whole entry)": "as the sequence (Q3UHJ0 whole entry, looked up) above", "test": "In vivo inhibition of AAK1 in C57BL6 mouse assessed as suppression of mu2 phosphorylation in brain lysate by Western blot analysis", "assay_type": "functional, organism-based"}, "Mus musculus [23]": {"system": "Mus musculus", "test": "Antinociceptive activity against formalin-induced nociceptive behavior in C57BL6 mouse assessed as reduction in phase 2 hind paw licking/biting at 10 mg/kg, sc administered 60 mins prior to formalin challenge by formalin test", "assay_type": "functional, organism-based"}, "Mus musculus [24]": {"system": "Mus musculus", "test": "Antinociceptive activity against formalin-induced nociceptive behavior in C57BL6 mouse assessed as reduction in time spent phase 1 hind paw licking/biting at 30 mg/kg, sc administered 60 mins prior to formalin challenge by formalin test", "assay_type": "functional", "conditions": "1 h"}, "[25]": {"test": "Unbound brain-to-plasma concentration ratio in Sprague-Dawley rat model of chronic constriction injury-induced neuropathic pain at 60 mg/kg, sc measured after 240 mins", "assay_type": "ADME, organism-based", "conditions": "read-out: K(p,uu,brain)"}, "[26]": {"test": "Drug concentration in plasma of Sprague-Dawley rat model of chronic constriction injury-induced neuropathic pain at 1 mg/kg, sc", "assay_type": "ADME, organism-based", "conditions": "in vivo"}, "[27]": {"test": "Drug concentration in plasma of Sprague-Dawley rat model of chronic constriction injury-induced neuropathic pain at 3 mg/kg, sc", "assay_type": "ADME, organism-based", "conditions": "in vivo"}, "[28]": {"test": "Drug concentration in plasma of Sprague-Dawley rat model of chronic constriction injury-induced neuropathic pain at 30 mg/kg, sc", "assay_type": "ADME, organism-based", "conditions": "in vivo"}, "[29]": {"test": "Drug concentration in brain of Sprague-Dawley rat model of chronic constriction injury-induced neuropathic pain at 3 mg/kg, sc", "assay_type": "ADME, organism-based", "conditions": "in vivo, read-out: Ct"}, "[30]": {"test": "Drug concentration in brain of Sprague-Dawley rat model of chronic constriction injury-induced neuropathic pain at 10 mg/kg, sc", "assay_type": "ADME, organism-based", "conditions": "in vivo, read-out: Ct"}, "[31]": {"test": "Drug concentration in brain of Sprague-Dawley rat model of chronic constriction injury-induced neuropathic pain at 30 mg/kg, sc", "assay_type": "ADME, organism-based", "conditions": "in vivo, read-out: Ct"}, "[32]": {"test": "Unbound drug concentration in plasma of Sprague-Dawley rat model of chronic constriction injury-induced neuropathic pain at 1 mg/kg, sc", "assay_type": "ADME, organism-based", "conditions": "in vivo"}, "[33]": {"test": "Unbound drug concentration in plasma of Sprague-Dawley rat model of chronic constriction injury-induced neuropathic pain at 30 mg/kg, sc", "assay_type": "ADME, organism-based", "conditions": "in vivo"}, "[34]": {"test": "Unbound drug concentration in brain of Sprague-Dawley rat model of chronic constriction injury-induced neuropathic pain at 1 mg/kg, sc", "assay_type": "ADME, organism-based", "conditions": "in vivo"}, "[35]": {"test": "Unbound drug concentration in brain of Sprague-Dawley rat model of chronic constriction injury-induced neuropathic pain at 3 mg/kg, sc", "assay_type": "ADME, organism-based", "conditions": "in vivo"}, "[36]": {"test": "Unbound drug concentration in brain of Sprague-Dawley rat model of chronic constriction injury-induced neuropathic pain at 30 mg/kg, sc", "assay_type": "ADME, organism-based", "conditions": "in vivo"}, "[37]": {"test": "Induction of motor coordination impairment in Sprague-Dawley rat at 60 mg/kg, sc measured up to 180 mins by rotarod test", "assay_type": "organism-based", "conditions": "in vivo, 3 h"}, "[38]": {"test": "Drug concentration in Sprague-Dawley rat plasma at 60 mg/kg, sc measured after 190 mins", "assay_type": "ADME, organism-based"}}, "note": "Activity calls are given as the source filed them. No cut-off for these calls is given here."}
{"smiles": "CC(C)C[C@@H](N)C(=O)Nc1ccc(-c2cnco2)c(OC(F)F)c1", "values": [{"measurement": "ED50", "setting": "[1]", "value": 6, "unit": "mg/kg"}, {"measurement": "remaining at 10 min, 0.5 µM", "setting": "[2]", "value": 46, "unit": "%"}, {"measurement": "Kp", "setting": "[3]", "value": 1.04}, {"measurement": "Kp uu", "setting": "[4]", "value": 0.71}, {"measurement": "solubility", "setting": "[5]", "value": 600, "unit": "µg/mL"}, {"measurement": "Activity", "setting": "[6]", "value": 1.4, "unit": "%"}, {"measurement": "Activity", "setting": "[7]", "value": 6.2, "unit": "%"}, {"measurement": "Activity", "setting": "[8]", "value": 7.6, "unit": "%"}, {"measurement": "Activity", "setting": "[9]", "value": 12, "unit": "%"}, {"measurement": "IC50", "setting": "[10]", "value": 0.12, "unit": "µM"}, {"measurement": "IC50", "setting": "[11]", "value": 1.93, "unit": "µM"}, {"measurement": "IC50", "setting": "[12]", "value": 0.922, "unit": "µM"}, {"measurement": "IC50", "setting": "[13]", "value": 1.33, "unit": "µM"}, {"measurement": "IC50", "setting": "Mu-type opioid receptor", "value": "> 30", "unit": "µM"}, {"measurement": "inhibition", "setting": "[14]", "value": 13, "unit": "%"}, {"measurement": "inhibition", "setting": "[15]", "value": 56, "unit": "%"}, {"measurement": "inhibition", "setting": "[16]", "value": "Active"}, {"measurement": "inhibition", "setting": "[17]", "value": "Active"}, {"measurement": "concentration", "setting": "[18]", "value": 400, "unit": "nM"}, {"measurement": "concentration", "setting": "[19]", "value": 1200, "unit": "nM"}, {"measurement": "concentration", "setting": "[20]", "value": 2600, "unit": "nM"}, {"measurement": "concentration", "setting": "[21]", "value": 9100, "unit": "nM"}, {"measurement": "EC50", "setting": "[22]", "value": 8.3, "unit": "µM"}, {"measurement": "Activity", "setting": "Mus musculus [23]", "value": "Active"}, {"measurement": "Time", "setting": "Mus musculus [24]", "value": 18, "unit": "s"}, {"measurement": "Kp uu at 4 h", "setting": "[25]", "value": 0.7}, {"measurement": "concentration", "setting": "[26]", "value": 400, "unit": "nM"}, {"measurement": "concentration", "setting": "[27]", "value": 1100, "unit": "nM"}, {"measurement": "concentration", "setting": "[28]", "value": 52000, "unit": "nM"}, {"measurement": "concentration", "setting": "[29]", "value": 900, "unit": "nM"}, {"measurement": "concentration", "setting": "[30]", "value": 7000, "unit": "nM"}, {"measurement": "concentration", "setting": "[31]", "value": 33000, "unit": "nM"}, {"measurement": "Cp(f)", "setting": "[32]", "value": 10, "unit": "nM"}, {"measurement": "Cp(f)", "setting": "[33]", "value": 1040, "unit": "nM"}, {"measurement": "Drug uptake(free)", "setting": "[34]", "value": 0.01, "unit": "µM"}, {"measurement": "Drug uptake(free)", "setting": "[35]", "value": 0.03, "unit": "µM"}, {"measurement": "Drug uptake(free)", "setting": "[36]", "value": 0.92, "unit": "µM"}, {"measurement": "Activity", "setting": "[37]", "value": "Non-Toxic"}, {"measurement": "concentration at 3.167 h", "setting": "[38]", "value": 84000, "unit": "nM"}]}
